Laboratory results from US20250186326A1, “Anti-Aging Compositions” (PROGELIFE, priority 2022, published 2025).

Legend:
farnesylation of HDJ2 = assay: Western blot of unfarnesylated HDJ2 in human skin fibroblasts (inhibition of farnesylation); format: cell-based; conditions: human skin fibroblasts AG13334, 72 h, Ritonavir 4 μM and Lopinavir 20 μM added
Method: (§1) Control Human fibroblast from skin (AG13334) were obtained from Coriell Institute. Cells were maintained in culture according to supplier information at 37° C. in a humidified atmosphere containing 5% CO2.
(§2) Fibroblasts were cultured 72 h without culture-media renewal.
(§3) Pravastatin/Compound II.3a • 14. Pravastatin/Compound II.2 • 15. Pravastatin/Compound I.12 • 16. Pravastatin/Compound II.5
(§4) Ritonavir (4 μM) and Lopinavir (20 μM) were added in all tested conditions to improve the lower limit of detection of prenylated prelamin A in western blots.
(§5) Total fibroblast proteins were extracted after 72 hours treatment in 100 μl of NP40 (Invitrogen) with 1× protease and phosphatase inhibitor cocktail (Life Technologies). Lysates were incubated on ice for 30 minutes, with vortexing at 10-minute intervals. Finally, they were sonicated four times (20 sec each) and then centrifuged at 13000 rpm for 10 minutes at 4° C.
(§6) Protein concentrations were determined with the BCA™ Protein Assay (Life Technologies).
(§7) The following antibodies were used in this study: rabbit monoclonal anti-lamin A/C (ab108922, 1/1000, Abcam, Amsterdam, Netherlands), mouse monoclonal anti-prelamin A (MABT858, Millipore, Molsheim, France), mouse monoclonal anti-HDJ2 (MA5-12748, Thermoscientific, France). Secondary antibodies conjugated with IR-Dye 800CW or 680 were used according to the manufacturer's instructions (926-32213 and 926-68072, 1/5000, Li-COR Biosciences).
(§8) Protein lysates were separated on NuPAGE™ Novex™ 8% Bis-Tris Midi Protein Gels (Life Technologies) and transferred to Immobilon-FL PVDF membranes (Millipore, Molsheim, France). Membranes were blocked for one hour in 1:1 diluted blocking buffer for near fluorescent western blotting (Rockland, Le Perray, France). Blocked membranes were incubated with primary antibody anti-prelamin A overnight at 4° C., following which they were washed and incubated with conjugated secondary antibody for one hour at room temperature. Then, this step was repeated with primary antibodies for HDJ2 and LMNA/C, and conjugated secondary antibodies.
(§9) Bound antibodies were detected and analyzed on an Odyssey imaging system (Li-COR Biosciences, Bad Homburg, Germany) according to the manufacturer's instructions. Revert Protein Stain (Li-COR Biosciences) was used as a total protein loading control.

[1] = tested on: farnesylation of prelamin A; assay: Western blot of prelamin A in human skin fibroblasts (inhibition of farnesylation); format: cell-based; conditions: human skin fibroblasts AG13334, 72 h, Ritonavir 4 μM and Lopinavir 20 μM added
Method: as §1, §2, §3, §4, §5, §6, §7, §8, §9

wrinkles/fine lines = conditions: 3 ppm pal-KTTKS in moisturizer, topical, 12 weeks, split-face; cited from earlier work
[2] = tested compound combined with Pravastatin 10 μM
[3] = tested compound combined with Alendronate 10 μM
[4] = controls: alendronate and/or pravastatin 10 μM without tested compound

| Compound | unfarnesylated HDJ2 band (western blot, FIG. 1) (farnesylation of HDJ2; [2]) | prelamin A band (western blot, FIG. 1) [1, 2] | unfarnesylated HDJ2 band (western blot, FIG. 1) (farnesylation of HDJ2; [3]) | prelamin A band (western blot, FIG. 1) [1, 3] | also measured |
| --- | --- | --- | --- | --- | --- |
| OC[C@H]1O[C@@H](OCCc2ccc(O)cc2)[C@H](O)[C@@H](O)[C@@H]1O [Compound I.12] | Clear bands | Clear bands | – | – | – |
| COc1ccc([C@@H]2CC(=O)c3c(O)cc(O[C@@H]4O[C@H](CO)[C@@H](O)[C@H](O)[C@H]4O[C@@H]4O[C@@H](C)[C@H](O)[C@@H](O)[C@H]4O)cc3O2)cc1O [Compound I.7a] | – | – | Clear bands | Clear bands | – |
| C[C@@H]1O[C@@H](O[C@H]2[C@H](Oc3cc(O)c4c(c3)O[C@H](c3ccc(O)cc3)CC4=O)O[C@H](CO)[C@@H](O)[C@@H]2O)[C@H](O)[C@H](O)[C@H]1O [Compound I.8a] | – | – | Clear bands | Clear bands | – |
| palmitoyl-lysine-threonine-threonine-lysine-serine [pal-KTTKS] | – | – | – | – | reduction in wrinkles/fine lines vs. placebo control (quantitative technical and expert grader image analysis) (wrinkles/fine lines): significant improvement |
| O=c1c(O)c(-c2ccc(O)c(O)c2)oc2cc(O)cc(O)c12 [Compound II.5] | Clear bands | Clear bands | – | – | – |
| NCCCC(O)(P(=O)(O)O)P(=O)(O)O [alendronate, reference compound] | – | – | – | – | unfarnesylated HDJ2 band (western blot, FIG. 1) (farnesylation of HDJ2; [4]): essentially absent; prelamin A band (western blot, FIG. 1) [1, 4]: essentially absent |
| Oc1ccc(/C=C/c2cc(O)cc(O)c2)cc1 [Compound I.1a] | – | – | Clear bands | Clear bands | – |
| O=c1cc(-c2ccc(O)cc2)oc2cc(O)cc(O)c12 [Compound II.1] | Clear bands | Clear bands | – | – | – |
| Oc1cc(O)c2c(c1)O[C@H](c1ccc(O)c(O)c1)[C@@H](O)C2 [Compound II.3a] | Clear bands | Clear bands | – | – | – |
| O=C1c2cccc(O)c2C(=O)c2c(O)cc(CO)cc21 [Compound II.2] | Clear bands | Clear bands | – | – | – |
| O=c1c2cc(O)c(O)cc2oc2cc(O)c([C@@H]3O[C@H](CO)[C@@H](O)[C@H](O)[C@H]3O)c(O)c12 [Compound I.6a] | – | – | Clear bands | Clear bands | – |
